Converted amounts (≈) assume the structure as drawn.
Tests used:
Aspergillus fumigatus = assay: In vitro antifungal activity against human pathogenic fungi, Aspergillus fumigatus; assay type: functional
Candida albicans = assay: In vitro antifungal activity against human pathogenic fungi, Candida albicans; assay type: functional
Cryptococcus neoformans = assay: In vitro antifungal activity against human pathogenic fungi, Cryptococcus neoformans; assay type: functional
Trichophyton benhamiae = assay: In vitro antifungal activity against human pathogenic fungi, Trichophyton mentagrophytes; assay type: functional, Arthroderma benhamiae
Sporothrix schenckii = assay: In vitro antifungal activity against human pathogenic fungi, Sporothrix schenck ii; assay type: functional

MIC (Aspergillus fumigatus) [µg/mL]	MIC (Candida albicans) [µg/mL]	MIC (Cryptococcus neoformans) [µg/mL]	MIC (Trichophyton benhamiae) [µg/mL]	MIC (Sporothrix schenckii) [µg/mL]	SMILES
0.02 (≈ 0.0764 µM)	> 100	> 100	12.5 (≈ 47.8 µM)	> 100	CSc1nc(-c2ccccc2)nc(Cl)c1C#N
> 100	> 100	> 100	> 100	> 100	COc1ccc(-c2nc(SC)nc(Nc3ccc(Cl)cc3)c2C#N)cc1
> 100	> 100	> 100	> 100	> 100	CSc1nc(S)c(C#N)c(-c2cccc(F)c2)n1
6.25 (≈ 29.2 µM)	25 (≈ 117 µM)	1.56 (≈ 7.3 µM)	1.56 (≈ 7.3 µM)	12.5 (≈ 58.5 µM)	CCc1nc(Cl)c(C#N)c(SC)n1
0.09 (≈ 0.304 µM)	> 100	1.56 (≈ 5.27 µM)	0.39 (≈ 1.32 µM)	> 100	CSc1nc(Cl)c(C#N)c(-c2cccc(Cl)c2)n1
> 100	> 100	> 100	> 100	> 100	CSc1nc(Nc2ccc(Cl)cc2)c(C#N)c(-c2ccc(F)cc2)n1
0.002 (≈ 0.00863 µM)	> 100	1.56 (≈ 6.73 µM)	0.005 (≈ 0.0216 µM)	50 (≈ 216 µM)	CSc1nc(Cl)c(C#N)c(SC)n1
0.09 (≈ 0.322 µM)	> 100	50 (≈ 179 µM)	0.09 (≈ 0.322 µM)	> 100	CSc1nc(Cl)c(C#N)c(-c2cccc(F)c2)n1
50 (≈ 171 µM)	> 100	> 100	50 (≈ 171 µM)	> 100	COc1ccc(-c2nc(SC)nc(Cl)c2C#N)cc1
0.04 (≈ 0.143 µM)	> 100	50 (≈ 179 µM)	0.09 (≈ 0.322 µM)	> 100	CSc1nc(Cl)c(C#N)c(-c2ccc(F)cc2)n1
0.04 (≈ 0.135 µM)	> 100	> 100	0.19 (≈ 0.641 µM)	> 100	CSc1nc(Cl)c(C#N)c(-c2ccc(Cl)cc2)n1
0.78 (≈ 2.53 µM)	50 (≈ 162 µM)	6.25 (≈ 20.3 µM)	0.19 (≈ 0.617 µM)	50 (≈ 162 µM)	CSc1nc(SCc2ccccc2)nc(Cl)c1C#N
> 100	> 100	> 100	> 100	> 100	CSc1nc(Nc2ccc(Cl)cc2)c(C#N)c(-c2cccc(F)c2)n1
0.39 (≈ 2.1 µM)	25 (≈ 135 µM)	1.56 (≈ 8.4 µM)	0.39 (≈ 2.1 µM)	6.25 (≈ 33.7 µM)	CSc1ncnc(Cl)c1C#N
1.56 (≈ 5.31 µM)	> 100	3.12 (≈ 10.6 µM)	0.39 (≈ 1.33 µM)	50 (≈ 170 µM)	CCSc1nc(Cl)c(C#N)c(-c2cccc(F)c2)n1
0.002 (≈ 0.00216 µM)	–	–	0.005 (≈ 0.00541 µM)	–	C[C@@H]1[C@H](O)[C@@H](C)/C=C/C=C/C=C/C=C/C=C/C=C/C=C/[C@H](O[C@@H]2O[C@H](C)[C@@H](O)[C@H](N)[C@@H]2O)C[C@@H]2O[C@](O)(C[C@@H](O)C[C@@H](O)[C@H](O)CC[C@@H](O)C[C@@H](O)CC(=O)O[C@H]1C)C[C@H](O)[C@H]2C(=O)O [AMPHOTERICIN B]

SMILES	MIC (Aspergillus fumigatus) [µg/mL]	MIC (Candida albicans) [µg/mL]	MIC (Cryptococcus neoformans) [µg/mL]	MIC (Trichophyton benhamiae) [µg/mL]	MIC (Sporothrix schenckii) [µg/mL]
CC(=O)N1CCN(c2ccc(OC[C@H]3CO[C@](Cn4ccnc4)(c4ccc(Cl)cc4Cl)O3)cc2)CC1 [KETOCONAZOLE]	0.7 (≈ 1.32 µM)	0.3 (≈ 0.565 µM)	0.1 (≈ 0.188 µM)	0.1 (≈ 0.188 µM)	25 (≈ 47 µM)
